In patent US20230183753A1, “Methods of in Vitro Cell Delivery” (Intellia Therapeutics, Inc., priority 2020, published 2023):

Tests used:
Format in all cases: cell-based, human
TRBC [1] = assay: CD3 negative cells after treating non-activated T cells with LNPs preincubated with ApoE3, ApoE4 or ApoA1, Example 19
Description: Healthy human donor leukopak was obtained commercially (Hemacare) and T cells were isolated by CD4/CD8 positive selection using the StraightFrom® Leukopak® CD4/CD8 MicroBeads (Miltenyi, Catalog, 130-122-352) following the manufacturer's protocol on MultiMACS Cell24 Separator Plus instrument.
Upon thaw, T cells were cultured in complete T cell media: T cell base media composed of XVIVO-15 media (Fisher, BE02-060Q), 1% Pen-Strep (Corning, 30-002-CI), 50 uM beta-mercaptoethanol, and N-Acetyl L-Cysteine (Fisher, ICN19460325), which was further supplemented with 5% human AB serum (Gemini Bio Products, 100-512), 200 U/mL IL-2 (Peprotech, 200-02), 5 ng/mL IL7 (Peprotech, 200-07), 5 ng/mL IL-15 (Peprotech, 200-15)). At this stage, a portion of cells were activated by addition of 1:100 dilution of TransAct (Miltenyi Biotech, Catalog #130-111-160). All cells were cultured at 37 C for 48 hours.
LNPs were generally prepared as Example 1 with the lipid composition of 50/9/39.5/1.5, expressed as the molar ratio of ionizable lipid A/cholesterol/DSPC/PEG, respectively.
Briefly, T cells were incubated in antibody targeting CD3 (Biolegend, 300441). Cells were subsequently washed, analyzed on a CytoFLEX S instrument (Beckman Coulter) using the FlowJo software package. T cells were gated on size and CD3 expression.

TRBC [2] = assay: CD3 negative cells after treating activated T cells with LNPs preincubated with ApoE3, ApoE4 or ApoA1, Example 19
Description: All cells were cultured at 37 C for 48 hours. 100,000 T cells were resuspended in complete T cell media without human serum for 15-30 min prior to LNP transfection.
Cells were washed 48 hr post LNP treatment with T cell media to wash and replaced with fresh complete T cell media.
Five days post LNP treatment, T cells were phenotyped by flow cytometry to determine CD3 protein surface expression. […] Cells were subsequently washed, analyzed on a CytoFLEX S instrument (Beckman Coulter) using the FlowJo software package. T cells were gated on size and CD3 expression.

B2M [3] = assay: B2M editing by NGS in T cells with different ionizable lipid formulations (Lipid A, Lipid B), Example 7; details: LNPs formulated with the named ionizable lipid
Description: LNPs formulated with different ionizable lipids were tested for T cell delivery efficacy. T cells were prepared, thawed and activated as in Example 5. Forty-eight hours post activation, T cells were treated with LNPs delivering Cas9 mRNA and gRNA G000529 (SEQ ID NO: 701) targeting B2M. LNPs were generally prepared as Example 1. Lipid A formulations were prepared at a ratio of 50/9/38/3 ionizable Lipid A, cholesterol, DSPC, and PEG2k-DMG. Lipid B compositions were formulated at a ratio of 50/10/38.5/1.5 ionizable lipid nonyl 8-((8,8-bis(octyloxy)octyl)(2-hydroxyethyl)amino)octanoate, cholesterol, DSPC, and PEG2k-DMG.

TRAC = assay: Lipid screen in activated B cells: percent editing by NGS, Example 23.3; details: LNPs formulated with the named ionizable lipid, 5 μg/ml
Description: A leukopak from a healthy human donor was obtained commercially (Hemacare) and B cells were isolated by CD19 positive selection using the StraightFrom Leukopak CD19 MicroBead kit (Miltenyi, 130-117-021) on a MultiMACS Cell24 Separator Plus instrument. Following MACS isolation, CD19+ B cells were activated in B Cell Media 3 or B Cell Media 7, each supplemented with 100 ng/ml MEGACD40L. […] LNPs were generally prepared as Example 1 using the ionizable and PEG lipids described in Table 68 with the lipid composition expressed as the molar ratio of ionizable lipid/cholesterol/DSPC/PEG, respectively.
Editing was more efficient in B cells cultured in StemSpan compared to IMDM.

B2M [4] = assay: Percent editing by NGS in monocytes and macrophages with Lipid A or Lipid D LNPs, Example 34; details: LNP formulations with the named lipid; Day 0 and Day 5 post thaw
Description: CD14+ cells were isolated as in Example 31 and frozen for future use. CD14+ cells were thawed and cultured in triplicate at 100,000 cells/well in OpTmizer base media as described in Table 2 with 10 ng/mL GM-CSF (Stemcell, 78140.1) on non-tissue culture plates (Falcon, 351172) for ease of detachment. Cells were treated with LNPs delivering mRNA encoding Cas9 (SEQ ID NO. 6) and gRNA G000529 (SEQ ID NO. 701) targeting B2M. For monocytes, LNP addition occurred on the same day as plating on tissue culture plates. […] LNPs were generally prepared as Example 1 using the ionizable lipids indicated in Tables 84 and 85 with the lipid composition of 50/10/38.5/1.5, expressed as the molar ratio of ionizable lipid/cholesterol/DSPC/PEG, respectively. […] The pre-incubated LNPs were added to cells in 1:1 v/v ratio, yielding a final total RNA cargo dose of 2.5 ug/mL or 5 ug/mL.
Briefly, cells were incubated with antibodies targeting CD68, CD11b and HLA-ABC (Biolegend, 311432) as generally as described in Example 31. HLA-ABC targeting antibody was used in place of B2M. Cells were subsequently washed, processed on a Cytoflex instrument (Beckman Coulter) and analyzed using the FlowJo software package. Cells were gated on size, CD68+, CD11b+ followed by HLA-ABC− population. NGS editing data is shown is Table 85. […] Editing was also observed when cells were cultured in RPMI or XVIVO-15 media.

B2M [5] = assay: B2M negative B cells after LNPs preincubated with ApoE3 or ApoE4, Example 23.4; details: LNPs formulated with the named ionizable lipid
Description: B cells (Hemacare) were thawed and activated in Stemspan SFEM media with 1 ug/ml CpG ODN 2006 (Invivogen, cat. tlrl-2006-1), 50 ng/ml IL-2 (Peprotech, cat. 200-02), 50 ng/ml IL-10 (Peprotech, cat. 200-10), 10 ng/ml IL-15 (Peprotech, cat. 200-15), 1 ng/ml MegaCD40L (Enzo Life Sciences, cat. ALX-522-110-0000), 1% penicillin-streptomycin and 5% human AB serum. B cells were considered activated in the presence of 1 ng/mL MegaCD40L (Enzo Life Sciences, cat. ALX-522-110-0000) and 1 ug/mL CpG ODN 2006 (Invivogen, cat. tlrl-2006-1). Two days following activation, B cells were treated with LNPs delivering Cas9 mRNA and gRNA G000529 (SEQ ID NO: 701) targeting B2M. LNPs were generally prepared as Example 1 using the ionizable lipids described in Table 69 with the lipid composition of 50/10/38.5/1.5, expressed as the molar ratio of ionizable lipid/cholesterol/DSPC/PEG, respectively. […] Five days post LNP treatment, cells were phenotyped by flow cytometry. Briefly, B cells were incubated with antibodies targeting B2M (Biolegend, cat. 395806), CD19 (Biolegend, cat. 302205), CD20 (Biolegend, cat. 302322), CD86 (Biolegend cat. 305420). Cells were subsequently washed in DAPI (Thermo Fisher, cat. D1306) diluted 1:3703 in PBS, processed on a Cytoflex instrument (Beckman Coulter) and analyzed using the FlowJo software package. B cells were gated on size, singlets, and live cells.

B2M locus = assay: Insertion into B cells with LNP and AAV6: GFP positive and B2M negative cells, Example 26; details: Day 7 post-treatment; LNP with the named ionizable lipid 5 μg/ml plus AAV6
Description: B cells were isolated as Example 23.3. and were activated in B cell media 9 as described in Table 64, supplemented with 1 ng/ml MEGACD40L. Two days following activation, B cells were treated with LNPs delivering mRNA encoding Cas9 (SEQ ID NO. 6) and gRNA G000529 (SEQ ID NO: 701) targeting the B2M locus as well as with AAV6 for GFP template insertion into the B2M locus (SEQ ID NO. 722) driven by the EF1α promoter. LNPs were generally prepared as described in Example 1 using Lipid A and Lipid D as the ionizable lipids with the lipid composition of 50/10/38.5/1.5, expressed as the molar ratio of ionizable lipid/cholesterol/DSPC/PEG, respectively.
B cells were phenotyped for GFP expression on Day 7. For B cell phenotyping by flow cytometry, B cells were stained with antibodies targeting CD19 (Biolegend, 302218), CD20 (Biolegend, 302322), CD86 (Biolegend, 374216) and B2M (Biolegend, 316312). Cells were subsequently stained with a viability dye (Biolegend, 422801), washed, and processed on a Cytoflex instrument (Beckman Coulter). Results were analyzed using the FlowJo software package. B cells were gated based on size and viability, followed by GFP expression on the total live population.

AAVS1 [6] = assay: GFP insertion (GFP++) in NK cells with LNP, AAV and DNAPK inhibitors, Example 29; details: LNP 10 ug/ml, seven days following editing
Description: (§1) Human primary NK cells were activated and expanded using K562-41BBL cells as feeder cells in OpTmizer media with 5% human AB serum, 500 U/mL IL-2, and 5 ng/ml IL-15 for 3 days. NK cells were plated at 50,000 cells per well in triplicate in OpTmizer media supplemented as described above with DNAPKi at concentrations indicated in Tables 78 and 79. […] The pre-incubated LNPs were added to NK cells suspended in the same media at a final concentration of 10 ug/ml of total RNA cargo in triplicate. For a subset of samples, AAV encoding GFP flanked by regions homologous to the AAVS1 edit site were added at a multiplicity of infection (MOI) of 600,000 genome copies following editing.

AAVS1 [7] = assay: Percent editing at AAVS1 by NGS in NK cells with DNAPK inhibitors, Example 29; details: LNP 10 ug/ml total RNA cargo, seven days post LNP treatment
Description: as §1

[8] = Apo protein 0.08 ug/mL, Biological Replicate1, LNP 4 ug/mL
[9] = Apo protein 0.08 ug/mL, Biological Replicate2, LNP 4 ug/mL
[10] = Apo protein 1.25 ug/mL, Biological Replicate1, LNP 4 ug/mL
[11] = Apo protein 1.25 ug/mL, Biological Replicate2, LNP 4 ug/mL
[12] = Apo protein 5.00 ug/mL, Biological Replicate1, LNP 4 ug/mL
[13] = Apo protein 5.00 ug/mL, Biological Replicate2, LNP 4 ug/mL
[14] = Apo protein 10.00 ug/mL, Biological Replicate1, LNP 4 ug/mL
[15] = Apo protein 10.00 ug/mL, Biological Replicate2, LNP 4 ug/mL

## ApoA1: Recombinant Human ApoA1 used to preincubate LNPs
TRBC [1]; [8]
  Percent CD3 negative cells: 4.2%
TRBC [1]; [9]
  Percent CD3 negative cells: 6.2%
TRBC [1]; [10]
  Percent CD3 negative cells: 4.7%
TRBC [1]; [11]
  Percent CD3 negative cells: 4.2%
TRBC [1]; [12]
  Percent CD3 negative cells: 6.1%
TRBC [1]; [13]
  Percent CD3 negative cells: 4.8%
TRBC [1]; [14]
  Percent CD3 negative cells: 5.4%
TRBC [1]; [15]
  Percent CD3 negative cells: 3.8%
TRBC [1]; Apo protein 0.08-10 ug/mL
  editing (CD3 negative cells) with LNPs preincubated with Apo protein, in words: none of the tested concentrations of ApoA1 protein led to efficient editing
TRBC [2]; [8]
  Percent CD3 negative cells: 2.9%
TRBC [2]; [9]
  Percent CD3 negative cells: 2.5%
TRBC [2]; [10]
  Percent CD3 negative cells: 2.8%
TRBC [2]; [11]
  Percent CD3 negative cells: 3.0%
TRBC [2]; [12]
  Percent CD3 negative cells: 2.5%
TRBC [2]; [13]
  Percent CD3 negative cells: 3.2%
TRBC [2]; [14]
  Percent CD3 negative cells: 3.6%
TRBC [2]; [15]
  Percent CD3 negative cells: 3.6%
TRBC [2]; Apo protein 0.08-10 ug/mL
  editing (CD3 negative cells) with LNPs preincubated with Apo protein, in words: none of the tested concentrations of ApoA1 protein led to efficient editing

## CCCCCCCCCOC(=O)CCCCCCCN(CCO)CCCCCCCC(OCCCCCCCC)OCCCCCCCC [Lipid B, nonyl 8-((8,8-bis(octyloxy)octyl)(2-hydroxyethyl)amino)octanoate]
B2M [3]
  B2M editing in T cells by NGS, in words: Efficient editing was evident

## CCCCCCCCCOC(=O)CCCCCCCN(CCO)CCCCCCC(OCCCCCCCC)OCCCCCCCC [Lipid C]
TRAC
  editing in activated B cells by NGS, in words: Efficient editing was evident

## CCCCC/C=C\C/C=C\CCCCCCCC(=O)OCC(COC(=O)CCC(OCCCCCCCC)OCCCCCCCC)COC(=O)OCCCN(CC)CC (stereo not shown) [Lipid A, (9Z,12Z)-3-((4,4-bis(octyloxy)butanoyl)oxy)-2-((((3-(diethylamino)propoxy)carbonyl)oxy)methyl)propyl octadeca-9,12-dienoate]
B2M [3]
  B2M editing in T cells by NGS, in words: Efficient editing was evident
B2M [4]
  editing in monocytes and macrophages, in words: showed effective editing
B2M [5]
  B2M negative B cells, in words: increased percentage of B2M negative cells
TRAC
  editing in activated B cells by NGS, in words: Efficient editing was evident
B2M locus
  percentage of B cells expressing GFP: 29.5%

## CCCCCCCCCOC(=O)CCCCCCCN(CCO)CCCCCCC(OCCCCCCCC)OCCCCCCCC [Lipid D]
B2M [4]
  editing in monocytes and macrophages, in words: showed effective editing
B2M [5]
  B2M negative B cells, in words: increased percentage of B2M negative cells
B2M locus
  percentage of B cells expressing GFP: 14.5%

## Cc1cc2ncnn2cc1Nc1ncc2c(n1)n(C1CCC3(CC1)CC3)c(=O)n2C [Compound 4, 7-methyl-2-((7-methyl-[1,2,4]triazolo[1,5-a]pyridin-6-yl)amino)-9-(spiro[2.5]octan-6-yl)-7,9-dihydro-8H-purin-8-one]
AAVS1 [6]; AAV MOI 600,000, DNAPKi 0.125 uM
  Percent of NK cells with high GFP expression, Mean: 88.10%
AAVS1 [6]; AAV MOI 600,000, DNAPKi 0.5 uM
  Percent of NK cells with high GFP expression, Mean: 90.27%
AAVS1 [6]; AAV MOI 600,000, DNAPKi […]
  Percent of NK cells with high GFP expression, Mean: 90.63%
AAVS1 [7]; DNAPKi 0.125 uM
  Mean percent editing at AAVS1: 96.77%
AAVS1 [7]; DNAPKi 0.5 uM
  Mean percent editing at AAVS1: 97.67%
AAVS1 [7]; DNAPKi […]
  Mean percent editing at AAVS1: 97.37%
